The values below come from patent publication US9447044B2, “Thioaryl derivatives as GPR120 agonists” (LG LIFE SCIENCES LTD., priority 2012, dated 2016).

The first experiment has as its target T1, hGPR120 (Homo sapiens, UniProt Q5NUL3).
T1 construct: expressed in transfected cells; host or cells: CHO-K1
T1 sequence (Q5NUL3 1-361): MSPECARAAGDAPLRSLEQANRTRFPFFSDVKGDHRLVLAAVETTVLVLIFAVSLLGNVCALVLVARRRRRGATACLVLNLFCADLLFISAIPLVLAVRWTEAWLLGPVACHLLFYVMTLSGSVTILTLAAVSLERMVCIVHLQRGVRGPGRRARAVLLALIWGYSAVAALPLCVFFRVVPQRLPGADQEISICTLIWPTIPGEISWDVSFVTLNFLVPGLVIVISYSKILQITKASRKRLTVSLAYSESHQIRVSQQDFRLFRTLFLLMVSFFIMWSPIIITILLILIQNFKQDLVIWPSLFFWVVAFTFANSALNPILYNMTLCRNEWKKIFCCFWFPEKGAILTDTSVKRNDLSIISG
In words: Measurement of activity of GPR120 agonist (cell-based assay), calcium fluorescence. To be noted: CHO-K1 cells expressing Ga16 and hGPR120; Calcium 5 dye fluorescence; activity class. How it is done: CHO-K1 cells expressing Ga16 and hGPR120 were dispensed into each well of a 96-well plate (3×10^4 cells/100 μl/well) and then incubated in 5% CO2, 37° C. incubator for 18 hours. Each well was treated with 100 μl of Calcium 5 dye (Molecular Devices) solution including 2% DMSO and then incubated in 5% CO2, 37° C. incubator for 1 hour. Serially diluted GPR120 agonists were prepared to a final concentration of 0.5% DMSO in a 96-well plate. Each well was treated with 50 μl of the agonist compounds using Plexstation II, and then fluorescence was measured at Ex 485 nm, Em 525 nm.
Fluorescence increased by the serially diluted GPR120 agonists is calculated as a relative percent (%) value based on the fluorescence represented by the treatment of 0.1% DMSO only. […] The calculation of measurement was carried out by using statistical software (Prizm).
Activity is denoted based on the following criteria: A=>20 μM, B=[…], C=2˜0.2 μM, D=<0.2 μM
Consider `CCCSc1ncccc1COc1ccc(C2CC2C(=O)O)cc1F` (single isomer, unassigned) [Example 119, 2-[3-fluoro-4-(2-propylsulfanyl-pyridin-3-ylmethoxy)-phenyl]-cyclopropane carboxylic acid], for which the EC50 (as a rule, the concentration needed to bring the measured effect to its halfway point) was less than 200 nM.

`O=C(O)C1CC1c1ccc(OCc2cccnc2SC2CCC2)c(Cl)c1` (single isomer, unassigned) [Example 124, 2-[3-chloro-4-(2-cyclobutylsulfanyl-pyridin-3-ylmethoxy)-phenyl]-cyclopropane carboxylic acid]: the EC50 was 200 to 2000 nM.

`O=C(O)C1CC1c1ccc(OCc2cccnc2SC2CCC2)c(Cl)c1` (single isomer, unassigned) [Example 125, 2-[3-chloro-4-(2-cyclobutylsulfanyl-pyridin-3-ylmethoxy)-phenyl]-cyclopropane carboxylic acid]: the EC50 is less than 200 nM.

Regarding `O=C(O)C1CC1c1ccc(OCc2cccnc2SCC2CC2)c(F)c1` (single isomer, unassigned) [Example 129, 2-[4-(2-cyclopropylmethylsulfanyl-pyridin-3-ylmethoxy)-3-fluoro-phenyl]-cyclopropane carboxylic acid], the EC50 was in the range of 200 to 2000 nM.

Turning to `O=C(O)C1CC1c1ccc(OCc2cccnc2SC2CCCC2)c(F)c1` (single isomer, unassigned) [Example 130, 2-[4-(2-cyclopentylsulfanyl-pyridin-3-ylmethoxy)-3-fluoro-phenyl]-cyclopropane carboxylic acid], the EC50 was 200 to 2000 nM.

Take `CC(C)Sc1cccc(COc2ccc(C3CC3C(=O)O)cc2F)n1` (single isomer, unassigned) [Example 131, 2-[3-fluoro-4-(6-isopropylsulfanyl-pyridin-2-ylmethoxy)-phenyl]-cyclopropane carboxylic acid]: the EC50 was in the range of 200 to 2000 nM.

With `O=C(O)C1CC1c1ccc(OCc2cccnc2SC2CCC2)c(F)c1` (single isomer, unassigned) [Example 133, 2-[4-(2-cyclobutylsulfanyl-pyridin-3-ylmethoxy)-3-fluoro-phenyl]-cyclopropane carboxylic acid], the EC50 lay within 200 to 2000 nM.

With `O=C(O)C1CC1c1ccc(OCc2cccc(SC3CCCC3)n2)c(F)c1` (single isomer, unassigned) [Example 134, 2-[4-(6-cyclopentylsulfanyl-pyridin-2-ylmethoxy)-3-fluoro-phenyl]-cyclopropane carboxylic acid], the EC50 is less than 200 nM.

Turning to `O=C(O)C1CC1c1cc(F)c(OCc2cccnc2SCC2CC2)c(F)c1` (single isomer, unassigned) [Example 136, 2-[4-(2-cyclopropylmethylsulfanyl-pyridin-3-ylmethoxy)-3,5-difluoro-phenyl]-cyclopropane carboxylic acid], the EC50 was in the range of 200 to 2000 nM.

Turning to `O=C(O)C1CC1c1cc(F)c(OCc2cccnc2SCC2CC2)c(F)c1` (single isomer, unassigned) [Example 137, 2-[4-(2-cyclopropylmethylsulfanyl-pyridin-3-ylmethoxy)-3,5-difluoro-phenyl]-cyclopropane carboxylic acid], the EC50 was less than 200 nM.

Consider `CCCSc1ncccc1COc1ccc(C2CC2C(=O)O)cc1F` (single isomer, unassigned) [Example 163, 2-[3-fluoro-4-(2-propylsulfanyl-pyridin-3-ylmethoxy)-phenyl]-cyclopropane carboxylic acid], for which the EC50 was less than 200 nM.

On to `O=C(O)C1CC1c1ccc(OCc2cccnc2SC2CCCC2)c(F)c1` (single isomer, unassigned) [Example 164, 2-[4-(2-cyclopentylsulfanyl-pyridin-3-ylmethoxy)-3-fluoro-phenyl]-cyclopropane carboxylic acid], for which the concentration giving a half-maximal response (EC50) is less than 200 nM.

Staying with this experiment, now noted: CHO-K1 cells expressing Ga16 and hGPR120; Calcium 5 dye fluorescence; numeric value.
With `O=C(O)C1CC1c1ccc(OCc2cccc(SC3CCC3)n2)c(F)c1` (single isomer, unassigned) [Example 135, 2-[4-(6-cyclobutylsulfanyl-pyridin-2-ylmethoxy)-3-fluoro-phenyl]-cyclopropane carboxylic acid], the 50% effective concentration (EC50) turned out to be 27 nM.
